The values that follow come from US4278670A, “7-Alpha-oxyiminoacylcephalosporins” (SmithKline Corporation, priority 1976, dated 1981).

Converted amounts (≈) assume the structure as drawn. Where a name gives a salt, the structure may show the parent alone. Read-outs that look alike come from different tables or passages of the source.

The test system of assay [1] is P. Mirabils PM 444. Nature of the assay: MIC in vitro, P. Mirabils PM 444 (G-). In kind it is cell-based.
Assay [2] deals with S. villaluz SK 70390. Nature of the assay: MIC in vitro, S. villaluz SK 70390 (G+). The assay is classed as cell-based.
The test system of assay [3] is Salmonella ATCC 12176. The experiment in a line: MIC in vitro, Salmonella ATCC 12176 (G-). The assay is classed as cell-based. The following applies: ATCC12176.
The subject of assay [4] is Kleb. pneumoniae SK 2400. Nature of the assay: MIC in vitro, Kleb. pneumoniae SK 2400 (G-). In kind it is cell-based. The settings on record: Klebsiella pneumoniae, SK2400.
For assay [5], the system named is E. coli HH 33779. The experiment in a line: MIC in vitro, E. coli HH 33779 (G-). The assay is classed as cell-based. The following applies: Escherichia coli, HH33779.
Assay [6] has as its system Serratia Marcescens ATCC 13880. The experiment in a line: MIC in vitro, Serratia Marcescens ATCC 13880 (G-). In kind it is cell-based. The following applies: ATCC13880.
Assay [7] deals with S. Aureus HH 127. Nature of the assay: MIC in vitro, S. Aureus HH 127 (G+). In kind it is cell-based. The settings on record: Staphylococcus aureus.
The subject of assay [8] is Entero. cloacae HH 31254. Nature of the assay: MIC in vitro, Entero. cloacae HH 31254 (G-). In kind it is cell-based. The following applies: Enterobacter cloacae, HH31254.
Assay [9] relates to S. Aureus SK 23390. Nature of the assay: MIC in vitro, S. Aureus SK 23390 (G+). The following applies: Staphylococcus aureus. In kind it is cell-based.
For assay [10], the system named is Pseudo Aeruginosa HH 63. The experiment in a line: MIC in vitro, Pseudo Aeruginosa HH 63 (G-). The assay is classed as cell-based.
Assay [11] concerns Kleb. pneumoniae SK 1200. The experiment in a line: MIC in vitro, Kleb. pneumoniae SK 1200 (G-). In kind it is cell-based. The settings on record: Klebsiella pneumoniae, SK1200.
The test system of assay [12] is Strep. Faecalis HH 34358. The experiment in a line: MIC in vitro, Strep. Faecalis HH 34358 (G+). The assay is classed as cell-based. The following applies: Enterococcus faecalis.
Assay [13] has as its system Proteus morgani 179. The experiment in a line: MIC in vitro, Proteus morgani 179 (G-). In kind it is cell-based.
Assay [14] concerns Entero. aerogenes ATCC 13048. The experiment in a line: MIC in vitro, Entero. aerogenes ATCC 13048 (G-). The assay is classed as cell-based. The settings on record: Klebsiella aerogenes, ATCC13048.
Assay [15] has as its system E. coli SK 12140. The experiment in a line: MIC in vitro, E. coli SK 12140 (G-). The settings on record: Escherichia coli, SK12140. In kind it is cell-based.
In assay [16] the test system is E. coli 12140. Nature of the assay: mouse protection against E. coli 12140. The settings on record: Escherichia coli, sc, S.C. The assay is classed as in vivo. An excerpt:
For comparison with known used compounds, data for cefuroxime, cefazolin and cephalothin are included.

[17] abbreviates: in vitro, G+, S. villaluz SK 70390, read-out: MIC.
Setting [18] is: in vitro, G-, Salmonella ATCC 12176, read-out: MIC.
Where [19] appears, read: in vitro, G-, Kleb. pneumoniae SK 2400, read-out: MIC.
Where [20] appears, read: in vitro, G+, S. Aureus HH 127, read-out: MIC.
[21] abbreviates: in vitro, G-, Entero. cloacae HH 31254, read-out: MIC.
[22] abbreviates: in vitro, G+, S. Aureus SK 23390, read-out: MIC.
[23] abbreviates: in vitro, G-, Kleb. pneumoniae SK 1200, read-out: MIC.
[24] abbreviates: in vitro, G+, Strep. Faecalis HH 34358, read-out: MIC.
Where [25] appears, read: in vitro, G-, Proteus morgani 179, read-out: MIC.
Setting [26] is: in vitro, G-, Entero. aerogenes ATCC 13048, read-out: MIC.

`Cc1nnc(SCC2=C(C(=O)O)N3C(=O)[C@@H](NC(=O)Cn4cnnn4)[C@H]3SC2)s1` [Cefazolin, cefazolin]: the MIC (as a rule, the least concentration at which growth counts as inhibited) in assay [1] is 3.1 µg/mL (≈ 6.82 µM); in assay [2] (setting [17]), 200 µg/mL (≈ 440 µM); in assay [3] (setting [18]), 0.8 µg/mL (≈ 1.76 µM); in assay [4] (setting [19]), 0.8 µg/mL (≈ 1.76 µM); in assay [5] (in vitro, G-, E. coli HH 33779, read-out: MIC), 0.8 µg/mL (≈ 1.76 µM); in [6] (in vitro, G-, Serratia Marcescens ATCC 13880, read-out: MIC) it was 100 µg/mL (≈ 220 µM). Moreover, the MIC in assay [7] (setting [20]) was 0.4 µg/mL (≈ 0.88 µM); in assay [8] (setting [21]) it was 0.8 µg/mL (≈ 1.76 µM); in assay [9] (setting [22]), 0.2 µg/mL (≈ 0.44 µM); in assay [10] (in vitro, G-, Pseudo Aeruginosa HH 63, read-out: MIC), above 200 µg/mL; in assay [11] (setting [23]), 0.8 µg/mL (≈ 1.76 µM); in assay [12] (setting [24]) it was 6.3 µg/mL (≈ 13.9 µM). Moreover, the MIC turned out to be 100 µg/mL (≈ 220 µM) in assay [13] (setting [25]), 1.6 µg/mL (≈ 3.52 µM) in [14] (setting [26]) and 0.8 µg/mL (≈ 1.76 µM) in assay [15]. In addition, in assay [16], the 50% effect level (ED50) was put at a dose of 6.25 mg/kg.

For the compound `CO/N=C(\C(=O)N[C@@H]1C(=O)N2C(C(=O)O)=C(COC(N)=O)CS[C@H]12)c1ccco1` [Cefuroxim, cefuroxime], the MIC in assay [1] was 1.6 µg/mL (≈ 3.77 µM); in assay [2], above 200 µg/mL; in assay [3] (Salmonella), 3.1 µg/mL (≈ 7.3 µM); in [4], 3.1 µg/mL (≈ 7.3 µM); in [5] it was 6.3 µg/mL (≈ 14.8 µM); in assay [6] (Serratia marcescens) it was 12.5 µg/mL (≈ 29.5 µM). The MIC in assay [7] is 0.8 µg/mL (≈ 1.89 µM); in [8], 3.1 µg/mL (≈ 7.3 µM); in [9], 1.6 µg/mL (≈ 3.77 µM); in assay [10], above 200 µg/mL; in assay [11] it was 3.1 µg/mL (≈ 7.3 µM); in assay [12] (setting [24]), 2.5 µg/mL (≈ 5.89 µM). The values for the MIC in assay [13] (setting [25]), in [14] (setting [26]) and in assay [15] were 50 µg/mL (≈ 118 µM), 6.3 µg/mL (≈ 14.8 µM) and 6.3 µg/mL (≈ 14.8 µM), respectively. Also, the 50% effect level in [16] (ED50) was put at a dose of 6.25 mg/kg.

With `CC(=O)OCC1=C(C(=O)O)N2C(=O)[C@@H](NC(=O)Cc3cccs3)[C@H]2SC1` [Cephalothin, cephalothin], the MIC in assay [1] is 3.1 µg/mL (≈ 7.82 µM); in [2] (setting [17]), 50 µg/mL (≈ 126 µM); in assay [3] (setting [18]), 0.8 µg/mL (≈ 2.02 µM); in assay [4] it was 3.1 µg/mL (≈ 7.82 µM); in assay [5], 6.3 µg/mL (≈ 15.9 µM); in [6] (Serratia marcescens) it was above 200 µg/mL. The minimal inhibitory concentration (MIC) was 0.2 µg/mL (≈ 0.504 µM) in [7] (setting [20]); 6.3 µg/mL (≈ 15.9 µM) in assay [8] (setting [21]); 0.2 µg/mL (≈ 0.504 µM) in assay [9] (setting [22]); above 200 µg/mL in assay [10]; 1.6 µg/mL (≈ 4.04 µM) in assay [11]; 12.5 µg/mL (≈ 31.5 µM) in assay [12]. Also, the MIC in assay [13] is above 200 µg/mL; in assay [14], 12.5 µg/mL (≈ 31.5 µM); in assay [15] it was 3.1 µg/mL (≈ 7.82 µM).

`CO/N=C(\C(=O)N[C@@H]1C(=O)N2C(C(=O)O)=C(CSc3nnnn3CCC(=O)O)CS[C@H]12)c1ccco1` [Example 1, 7[Syn-2-methoxyimino-2-α-furylacetamido]-3-[1-(2-carboxyethyl)tetrazol-5-ylthiomethyl]-3-cephem-4-carboxylic acid, disodium salt]: the MIC was 0.2 µg/mL in assay [1]; above 200 µg/mL in [2] (setting [17]); 0.8 µg/mL in assay [3] (setting [18]); 0.8 µg/mL in assay [4] (setting [19]); 3.1 µg/mL in [5]; 3.1 µg/mL in [6] (Serratia marcescens). Further, the minimum inhibitory concentration (MIC) in assay [7] is 3.1 µg/mL; in assay [8] (setting [21]), 1.6 µg/mL; in assay [9] it was 1.6 µg/mL; in assay [10], 200 µg/mL; in assay [11] (setting [23]) it was 0.8 µg/mL; in [12] it was 50 µg/mL. Moreover, the MIC in assay [13] (setting [25]) came to 1.6 µg/mL; in assay [14] it was 3.1 µg/mL; in assay [15] (in vitro, G-, E. coli SK 12140, read-out: MIC), 1.6 µg/mL. For the same compound, in [16], the ED50 (commonly the midpoint of the dose-response relation) was determined as 4.4 mg/kg.
